Experimental data reported in the NIST ThermoML archive (doi:10.1021/je5010214).
Numbers after ± are expanded uncertainties.

Conditions: Liquid, Vibrating tube method

CCCCCCC [heptane]
Conditions	mass density [kg/m3]
343.15 K, 47908 kPa	688 ± 1
343.15 K, 50059 kPa	689.668 ± 1.1
343.15 K, 52026 kPa	691.103 ± 1.1
343.15 K, 59944 kPa	696.69 ± 1.1
343.15 K, 61966 kPa	697.921 ± 1.1
343.15 K, 65070 kPa	699.939 ± 1.1
343.15 K, 66059 kPa	700.533 ± 1.2
343.16 K, 34034 kPa	676.976 ± 0.96
343.16 K, 54918 kPa	693.158 ± 1.1
343.16 K, 57986 kPa	695.23 ± 1.1
348.15 K, 100.3 kPa	636.109 ± 0.82
348.15 K, 462.2 kPa	636.505 ± 0.82
348.15 K, 859.8 kPa	637.192 ± 0.82
348.15 K, 974.2 kPa	637.393 ± 0.82
348.15 K, 1974.9 kPa	638.781 ± 0.82
348.15 K, 3051.1 kPa	640.295 ± 0.82
348.15 K, 5094 kPa	643.002 ± 0.83
348.15 K, 10025 kPa	649.256 ± 0.85
348.15 K, 14792 kPa	654.622 ± 0.87
348.15 K, 20111 kPa	660.386 ± 0.89
348.15 K, 22163 kPa	662.539 ± 0.9
348.15 K, 28080 kPa	668.108 ± 0.93
348.15 K, 30149 kPa	670.002 ± 0.94
348.15 K, 32161 kPa	671.799 ± 0.95
348.15 K, 32935 kPa	672.452 ± 0.96
348.15 K, 33959 kPa	673.504 ± 0.96
348.15 K, 35045 kPa	674.428 ± 0.97
348.15 K, 37937 kPa	676.834 ± 0.99
348.15 K, 40026 kPa	678.502 ± 1
348.15 K, 45051 kPa	682.511 ± 1
348.15 K, 47915 kPa	684.825 ± 1
348.15 K, 49950 kPa	686.336 ± 1.1
348.15 K, 52167 kPa	688.088 ± 1.1
348.15 K, 55022 kPa	690.168 ± 1.1
348.15 K, 57945 kPa	692.261 ± 1.1
348.15 K, 62063 kPa	695.106 ± 1.1
348.15 K, 64942 kPa	696.91 ± 1.2
348.15 K, 66153 kPa	697.788 ± 1.2
348.16 K, 291.7 kPa	636.475 ± 0.82
348.16 K, 7050.2 kPa	645.632 ± 0.84
348.16 K, 9003.2 kPa	648.038 ± 0.84
348.16 K, 12187 kPa	651.83 ± 0.86
348.16 K, 17899 kPa	658.098 ± 0.88
348.16 K, 25100 kPa	665.329 ± 0.92
348.16 K, 32942 kPa	672.463 ± 0.96
348.16 K, 42066 kPa	680.23 ± 1
348.16 K, 60030 kPa	693.748 ± 1.1
353.15 K, 100.5 kPa	631.649 ± 0.82
353.15 K, 336 kPa	631.995 ± 0.82
353.15 K, 572.6 kPa	632.233 ± 0.82
353.15 K, 926 kPa	632.774 ± 0.82
353.15 K, 1016.4 kPa	632.95 ± 0.82
353.15 K, 2992.1 kPa	635.919 ± 0.82
353.15 K, 4963.9 kPa	638.644 ± 0.83
353.15 K, 7000.9 kPa	641.284 ± 0.84
353.15 K, 9062.3 kPa	643.911 ± 0.84
353.15 K, 10005 kPa	645.176 ± 0.85
353.15 K, 12128 kPa	647.788 ± 0.86
353.15 K, 14954 kPa	651.028 ± 0.87
353.15 K, 17977 kPa	654.406 ± 0.88
353.15 K, 19937 kPa	656.492 ± 0.89
353.15 K, 21894 kPa	658.507 ± 0.9
353.15 K, 24908 kPa	661.562 ± 0.92
353.15 K, 27850 kPa	664.482 ± 0.93
353.15 K, 29936 kPa	666.345 ± 0.94
353.15 K, 31876 kPa	668.022 ± 0.95
353.15 K, 32911 kPa	668.934 ± 0.96
353.15 K, 32961 kPa	669.075 ± 0.96
353.15 K, 34945 kPa	670.985 ± 0.97
353.15 K, 37913 kPa	673.509 ± 0.99
353.15 K, 40143 kPa	675.336 ± 1
353.15 K, 42067 kPa	677.003 ± 1
353.15 K, 45002 kPa	679.292 ± 1
353.15 K, 48029 kPa	681.775 ± 1.1
353.15 K, 50145 kPa	683.478 ± 1.1
353.15 K, 52082 kPa	685.052 ± 1.1
353.15 K, 55132 kPa	687.213 ± 1.1
353.15 K, 57980 kPa	689.013 ± 1.1
353.15 K, 60098 kPa	690.731 ± 1.1
353.15 K, 65063 kPa	694.154 ± 1.2
353.16 K, 2113.4 kPa	634.631 ± 0.82
353.16 K, 33964 kPa	670.126 ± 0.97
353.16 K, 62042 kPa	692.223 ± 1.1
353.16 K, 66024 kPa	694.802 ± 1.2
358.15 K, 100.4 kPa	626.935 ± 0.82
358.15 K, 264.1 kPa	627.168 ± 0.82
358.15 K, 508.4 kPa	627.316 ± 0.82
358.15 K, 926.8 kPa	628.098 ± 0.82
358.15 K, 1013.9 kPa	628.327 ± 0.82
358.15 K, 3021.2 kPa	631.365 ± 0.82
358.15 K, 4930 kPa	634.077 ± 0.83
358.15 K, 10073 kPa	641.066 ± 0.85
358.15 K, 12137 kPa	643.735 ± 0.86
358.15 K, 14905 kPa	646.944 ± 0.87
358.15 K, 17965 kPa	650.491 ± 0.88
358.15 K, 22175 kPa	654.965 ± 0.91
358.15 K, 25059 kPa	657.993 ± 0.92
358.15 K, 28035 kPa	660.974 ± 0.94
358.15 K, 30002 kPa	662.532 ± 0.95
358.15 K, 31978 kPa	664.488 ± 0.96
358.15 K, 32793 kPa	665.093 ± 0.96
358.15 K, 33039 kPa	665.404 ± 0.96
358.15 K, 33850 kPa	666.525 ± 0.97
358.15 K, 35026 kPa	667.567 ± 0.98
358.15 K, 37872 kPa	669.996 ± 0.99
358.15 K, 40037 kPa	671.748 ± 1
358.15 K, 42100 kPa	673.454 ± 1
358.15 K, 47958 kPa	678.424 ± 1.1
358.15 K, 50038 kPa	680.129 ± 1.1
358.15 K, 52081 kPa	681.85 ± 1.1
358.15 K, 55073 kPa	684.059 ± 1.1
358.15 K, 57918 kPa	685.685 ± 1.1
358.15 K, 60043 kPa	687.68 ± 1.1
358.15 K, 62066 kPa	689.111 ± 1.1
358.15 K, 64986 kPa	691.283 ± 1.2
358.15 K, 66109 kPa	692.023 ± 1.2
358.16 K, 2083.9 kPa	629.903 ± 0.82
358.16 K, 6993.5 kPa	637.086 ± 0.84
358.16 K, 9030.2 kPa	639.755 ± 0.84
358.16 K, 20162 kPa	652.87 ± 0.89
358.16 K, 45054 kPa	675.954 ± 1
363.15 K, 104.1 kPa	622.138 ± 0.82
363.15 K, 334 kPa	622.474 ± 0.82
363.15 K, 601.7 kPa	622.649 ± 0.82
363.15 K, 892.9 kPa	623.267 ± 0.82
363.15 K, 1034.7 kPa	623.668 ± 0.82
363.15 K, 1986 kPa	625.081 ± 0.82
363.15 K, 2940.4 kPa	626.678 ± 0.82
363.15 K, 4979.2 kPa	629.757 ± 0.83
363.15 K, 9959.5 kPa	636.563 ± 0.85
363.15 K, 11971 kPa	639.421 ± 0.86
363.15 K, 14936 kPa	642.887 ± 0.87
363.15 K, 17973 kPa	646.544 ± 0.89
363.15 K, 19940 kPa	648.708 ± 0.9
363.15 K, 24872 kPa	654.024 ± 0.92
363.15 K, 27993 kPa	657.078 ± 0.94
363.15 K, 30062 kPa	659.006 ± 0.95
363.15 K, 31961 kPa	660.63 ± 0.96
363.15 K, 33033 kPa	661.606 ± 0.97
363.15 K, 33053 kPa	661.633 ± 0.97
363.15 K, 34000 kPa	663.017 ± 0.97
363.15 K, 35028 kPa	664.03 ± 0.98
363.15 K, 37919 kPa	666.495 ± 1
363.15 K, 39916 kPa	668.059 ± 1
363.15 K, 42016 kPa	669.917 ± 1
363.15 K, 47947 kPa	675.063 ± 1.1
363.15 K, 50050 kPa	676.807 ± 1.1
363.15 K, 52023 kPa	678.457 ± 1.1
363.15 K, 54940 kPa	680.815 ± 1.1
363.15 K, 57916 kPa	682.78 ± 1.1
363.15 K, 59980 kPa	684.625 ± 1.1
363.15 K, 62043 kPa	686.168 ± 1.2
363.15 K, 64924 kPa	688.267 ± 1.2
363.15 K, 66088 kPa	689.169 ± 1.2
363.16 K, 6920.2 kPa	632.642 ± 0.84
363.16 K, 8964.8 kPa	635.395 ± 0.85
363.16 K, 21933 kPa	650.806 ± 0.91
363.16 K, 44987 kPa	672.551 ± 1
